Measured values: US6579718B1, “Carbazolylvinyl dye protein stains” (Molecular Probes, Inc., priority 2000, dated 2003)

Legend:
BSA = BSA (Bos taurus, UniProt P02769); assay: Absorbance/emission spectra, fluorescence enhancement and quantum yield of dyes in solution +/- BSA (Example 21); assay type: physicochemical, bovine
Experimental: A particular dye of this invention is generally selected for a particular assay using one or more of the following criteria: sensitivity to poly(amino acids), insensitivity to the presence of nucleic acids, dynamic range, photostability, staining time, and spectral properties. […] Although the fluorescence enhancements and quantum yields are low to moderate in solution, some are significant relative to the long wavelength emission maxima (see Table 1 and Example 21).
Measurements are performed using −1 μM dye+/−150 μg/mL BSA in 10 mM Tris-HCl, pH 7.5,+0.05% SDS with a 2.0 mL sample volume. Fluorescence enhancements are calculated at emission maxima in a standard fluorometer using 470 nm excitation. Fluorescence quantum yields are determined relative to fluorescein (in 0.1 M NaOH), using 470 nm excitation.

[1] = test system: amino acid homo- and hetero-polymers; assay: Dye staining of amino acid homo- and hetero-polymers copolymerized into polyacrylamide gel discs
Source text: The specificity of protein detection of the present method can be compared to that of silver, CBB, SYPRO Orange dye and SYPRO Red dye staining for a variety of synthetic poly(amino acids) copolymerized into a polyacrylamide gel matrix. To do this, homopolymers of L-arginine, asparagine, histidine, lysine, aspartate, glutamate, alanine, glycine, isoleucine, leucine, methionine, serine, threonine, tryptophan, tyrosine and proline are copolymerized into 15% T, 2.6% C polyacrylamide gels at a concentration of […]. Except when indicated, 0.1% sodium dodecyl sulfate is included in the polyacrylamide solution as well. The amino acid heteropolymers, poly(glutamate, alanine, tyrosine), poly(glutamate, tyrosine), poly(lysine, tyrosine), poly(glutamate, lysine, tyrosine), and poly(arginine, tyrosine) are copolymerized into polyacrylamide gels in an identical manner as the homopolymers. Blank gels containing no polymer are prepared for reference. The co-polymerized gels are cut into discs using the large end of a 1000 microliter pipet tip (Sorenson Bioscience, Inc., West Salt. Lake City, Utah) and stained in Falcon 48 well flat bottom tissue culture plates (Becton-Dickinson, Franklin Lakes, N.J.) on an orbital shaker operating at 50 RPM. Gel discs are quantified on a Roche Lumi-Imager system (Indianapolis, Ind.) and classified into three groups based upon staining intensity (strong, moderate, or weak staining).

tubulin = assay: Electroblotting of tubulin from stained gels (Example 24); settings: phosphate-buffered saline staining formulation
Experimental: Tubulin was selected as a model protein since it is relatively difficult to elute from gels by simple passive diffusion (Example 23). Two-fold serial dilutions of […] ranging from 1000 to 1 ng are applied and separated by sodium dodecyl sulfate (SDS)-polyacrylamide gel electrophoresis according to standard procedures. After electrophoresis, gels are stained with either Compound 9 or SYPRO Orange dye as described in Example 23, photographed and then incubated in a transfer buffer consisting of 10 mM Tris, 96 mM glycine, 10% methanol, 0.1% sodium dodecyl sulfate, pH 8.3. Proteins are electroblotted to poly(vinylidene difluoride) (PVDF) membranes using the same transfer buffer for 120 minutes using a semi-dry blotter by standard methods. Immunoblotting is performed by standard methods and colorimetric procedures are employed to detect the tubulin using 5-bromo-4-chloroindolyl phosphate/nitroblue tetrazolium (BCIP/NBT). […] Tubulin can subsequently be visualized by using alkaline phosphatase-conjugated secondary antibody with similar detection sensitivity as electroblots of unstained, control gels. The transfer of tubulin from gels stained with SYPRO Orange dye in 7% acetic acid is not possible despite a 20-minute incubation in transfer buffer containing 0.1% sodium dodecyl sulfate prior to blotting.

proteins [2] = assay: Staining of proteins separated in presence of alternative detergents; settings: alternative detergents instead of SDS
proteins [3] = assay: Staining protein gels with dye in the running buffer (Example 30); settings: running buffer with 0.05% SDS and 1-3 μM dye
Experimental: The proteins of interest are prepared for loading on standard SDS gels, using standard methods. Dilution series of known molecular weight markers, or proteins of unknown concentration, or protein mixtures of unknown composition are used. The gels are loaded and run under standard conditions, excepting that the running buffer contains 0.05% SDS and 1-3 μM Compound 9. The stained gels are either photographed directly after electrophoresis or are destained in 7.5% acetic acid or phosphate-buffered saline for 20-50 minutes to remove background staining prior to photography. […] In addition, the migration of protein bands can be monitored through the glass plates that support the gel, during electrophoresis. Such monitoring can either be calorimetric, since the stained protein bands are visually colored, or can be via fluorescence, if the excitation source is at visible wavelengths (such as a laser or mercury-arc lamp, for example).

proteins [4] = assay: Prestaining of proteins prior to electrophoresis (Example 31); settings: prestaining before electrophoresis
Experimental: The proteins of interest are diluted to appropriate concentrations in electrophoresis sample buffer. The samples are then heated to 90-95° C. for 4-5 minutes and allowed to cool to room temperature. Compound 9 is added to the protein solutions to a final concentration of 10 mM, and the samples are loaded onto a 12% polyacrylamide gel, or other appropriate percentage gel. The gel is electrophoresed under standard conditions and visualized directly using ultraviolet illumination. The sensitivity of this method is somewhat less than the sensitivity possible using the methods in Example 22 (post staining the gel after electrophoresis) or in Example 30 (dye in running buffer).

[5] = 150 μg/mL BSA, 10 mM Tris-HCl, pH 7.5, 0.05% SDS
[6] = dye without BSA, 10 mM Tris-HCl, pH 7.5, 0.05% SDS
[7] = gel discs with 0.1% SDS, no asterisk = moderate

Sequence of BSA (P02769 25-607): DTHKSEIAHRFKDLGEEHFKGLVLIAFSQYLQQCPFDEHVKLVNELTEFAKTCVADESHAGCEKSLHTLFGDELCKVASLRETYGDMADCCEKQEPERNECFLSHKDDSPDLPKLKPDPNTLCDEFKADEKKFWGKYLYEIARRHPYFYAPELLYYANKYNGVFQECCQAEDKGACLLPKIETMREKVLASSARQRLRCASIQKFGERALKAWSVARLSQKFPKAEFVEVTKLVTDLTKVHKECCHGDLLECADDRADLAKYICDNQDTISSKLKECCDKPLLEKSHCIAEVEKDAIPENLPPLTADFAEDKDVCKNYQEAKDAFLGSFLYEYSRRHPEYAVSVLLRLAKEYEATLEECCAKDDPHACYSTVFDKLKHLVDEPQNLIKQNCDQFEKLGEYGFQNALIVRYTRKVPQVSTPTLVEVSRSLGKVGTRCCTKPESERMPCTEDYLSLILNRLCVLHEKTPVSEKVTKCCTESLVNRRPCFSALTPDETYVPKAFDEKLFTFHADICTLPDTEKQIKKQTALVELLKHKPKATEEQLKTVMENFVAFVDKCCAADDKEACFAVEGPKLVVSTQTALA

- ABS λ max, BSA (BSA; [5]): 480 nm
- EM λ max, BSA (BSA; [5]): 604 nm
- FE (fluorescence enhancement, BSA) (BSA; 150 μg/mL BSA, 0.05% SDS, at emission maxima, 470 nm excitation): 92 fold
- Quantum Yield (BSA) (BSA; 150 μg/mL BSA, relative to fluorescein in 0.1 M NaOH, 470 nm excitation): 0.21
- ABS λ max, unbound (BSA; [6]): 479 nm
- EM λ max, unbound (BSA; [6]): ~700 nm
SMILES: CCn1c2ccccc2c2cc(/C=C/c3cc[n+](CCCCS(=O)(=O)[O-])c4ccccc34)ccc21 [Compound 9]
- Staining intensity, Arg homopolymer [1, 7]: Arg*
- Staining intensity, Arg:Tyr heteropolymer [1, 7]: Arg:Tyr*
- Staining intensity, Glu:Ala:Tyr heteropolymer [1, 7]: Glu:Ala:Tyr*
- Staining intensity, Glu:Lys:Tyr heteropolymer [1, 7]: Glu:Lys:Tyr*
- Staining intensity, Glu:Tyr heteropolymer [1, 7]: Glu:Tyr*
- Staining intensity, Gly homopolymer [1, 7]: Gly
- Staining intensity, His homopolymer [1, 7]: His*
- Staining intensity, Ile homopolymer [1, 7]: Ile
- Staining intensity, Lys homopolymer [1, 7]: Lys*
- Staining intensity, Lys:Tyr heteropolymer [1, 7]: Lys:Tyr*
- Staining intensity, Tyr homopolymer [1, 7]: Tyr*
- Change of amino acid polymer staining in phosphate-buffered saline ([1]; phosphate-buffered saline versus 7% acetic acid): not substantially reduced
- Transfer of tubulin from stained gel by electroblotting (tubulin): readily transferred
- Staining of proteins separated in presence of Triton X-100 or N-benzyl-N,N-dimethylhexadecylammonium chloride (proteins [2]): does not stain proteins
- Sensitivity compared with staining gels after electrophoresis (proteins [3]): about the same
- Sensitivity compared with methods of Example 22 or Example 30 (proteins [4]): somewhat less
